Experiments:
[1] = test system: cell culture cells, transfected with MNK2 (MNK2a or MNK2b) or MNK1; conditions: addition to cell culture cells transfected with MNK2 (MNK2a or MNK2b) or MNK1; cited from earlier work
MNK1a = MNK1a (Homo sapiens (Human), UniProt Q9BUB5); assay: MNK1 in vitro kinase assay (Assay 3), Z'-LYTE; assay type: biochemical; conditions: compound concentration of 1 μM
Excerpt: C. MNK1 In Vitro Kinase Assay (Assay 3)
MNK1 Data can be obtained from the MNK1 Z′-LYTE® assay. The MNK1 Z′-LYTE® screening protocol and assay conditions are also described on www.invitrogen.com.
The assay is described as follows:
The Z′-LYTE® biochemical assay employs a fluorescence-based, coupled-enzyme format and is based on the differential sensitivity of phosphorylated and non-phosphorylated peptides to proteolytic cleavage. The peptide substrate is labeled with two fluorophores—one at each end—that make up a FRET pair.
In the primary reaction, the kinase transfers the gamma-phosphate of ATP to a single tyrosine, serine or threonine residue in a synthetic FRET-peptide. In the secondary reaction, a site-specific protease recognizes and cleaves non-phosphorylated FRET-peptides. Phosphorylation of FRET-peptides suppresses cleavage by the Development Reagent. […] A ratiometric method, which calculates the ratio (the Emission Ratio) of donor emission to acceptor emission after excitation of the donor fluorophore at 400 nm, is used to quantitate reaction progress, as shown in the equation below.
ASSAY SETUP: The inhibition of kinase activity of MNK1a was assessed using pre-activated GST-MNK1a. […]
9. Read on fluorescence plate reader and analyze the data […]

MNK2a = MNK2a (Homo sapiens (Human), UniProt Q9HBH9); assay: MNK2a in vitro kinase assay (Assay 2), ADP-Glo; assay type: biochemical; conditions: read-out: MNK2 IC50
Chain of MNK2a (Q9HBH9 whole entry): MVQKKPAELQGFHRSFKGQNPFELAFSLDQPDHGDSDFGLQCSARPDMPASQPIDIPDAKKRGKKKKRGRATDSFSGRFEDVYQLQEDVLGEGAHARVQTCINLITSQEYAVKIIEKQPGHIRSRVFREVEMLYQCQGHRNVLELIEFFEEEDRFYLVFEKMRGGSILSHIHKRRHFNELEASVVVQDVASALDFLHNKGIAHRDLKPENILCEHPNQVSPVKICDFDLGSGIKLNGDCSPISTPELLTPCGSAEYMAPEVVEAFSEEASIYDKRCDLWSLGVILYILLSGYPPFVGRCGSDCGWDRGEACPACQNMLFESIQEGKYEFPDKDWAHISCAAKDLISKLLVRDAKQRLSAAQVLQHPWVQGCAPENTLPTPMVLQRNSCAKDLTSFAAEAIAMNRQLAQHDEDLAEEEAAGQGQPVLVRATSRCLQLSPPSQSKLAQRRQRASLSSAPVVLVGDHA
Method: The white, 384-well OptiPlate F plates were purchased from PerkinElmer. The ADP-Glo Kinase Assay (including ultra pure ATP) was purchased from Promega (V9103). Activated MNK2a was obtained as described in WO2011/104340. […] All other materials were of highest grade commercially available. Compounds are tested in either serial dilutions or single dose concentrations. The compound stock solutions are 10 mM in 100% DMSO The serial compound dilutions are prepared in 100% DMSO followed by 1:27.3 intermediate dilution in assay buffer. The final DMSO concentration in assay will be <3%.
In the 384-well plates 3 μl of test compound from the intermediate dilution is mixed with 4 μl of the activated MNK2 enzyme (final concentration of 10 nM) and 4 μl of the peptide (final concentration of 25 μM)/ultra pure ATP (final concentration of 20 μM), all dissolved in assay buffer. This step is followed by an incubation time of 90 min, then 10 μl of ADP Glo reagent are added, followed by 40 min of incubation. Then 20 μl of kinase detection reagent are admixed. The plates are sealed and after an incubation period of 30 min, the luminescence signal is measured in an Envision reader to determine the amount of produced ADP. All incubation steps are performed at room temperature. […]
IC50 values based on dose response curves are calculated with the AssayExplorer software.

Chain of MNK1a (Q9BUB5 other isoform, or with tags, fused parts or gaps): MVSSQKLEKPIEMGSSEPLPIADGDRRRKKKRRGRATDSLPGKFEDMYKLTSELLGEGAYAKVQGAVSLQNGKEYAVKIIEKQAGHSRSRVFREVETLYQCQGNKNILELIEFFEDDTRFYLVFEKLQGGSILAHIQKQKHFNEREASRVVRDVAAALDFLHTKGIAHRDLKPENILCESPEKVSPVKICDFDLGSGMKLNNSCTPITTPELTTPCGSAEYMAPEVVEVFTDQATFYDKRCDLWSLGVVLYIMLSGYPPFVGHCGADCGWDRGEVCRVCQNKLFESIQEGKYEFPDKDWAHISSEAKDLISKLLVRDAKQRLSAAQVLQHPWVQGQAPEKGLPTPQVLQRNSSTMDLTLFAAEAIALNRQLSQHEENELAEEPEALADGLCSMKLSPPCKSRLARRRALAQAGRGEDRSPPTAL

SMILES: Nc1ncnc2n[nH]c(Nc3ccc(F)cc3)c12 [CGP57380]
- reduction of phosphorylated eIF4E [1]: strong reduction of phosphorylated eIF4E

SMILES: C[C@H](NC(=O)[C@@H](C)Oc1cc(F)ccc1Nc1ncnc2cc(N=S3(=O)CCC3)cc(F)c12)C(F)(F)F [Example 4.136]
- MNK1 % INH (MNK1a): 93%

SMILES: C[C@@H](Oc1cc(F)ccc1Nc1ncnc2cc(N=S3(=O)CCC3)cc(F)c12)C(=O)NCCC(F)(F)F [Example 4.108]
- IC50 (MNK2a): 2 nM

Source: patent US9708274B2, “Sulfoximine substituted quinazolines for pharmaceutical compositions” (EVOTEC INTERNATIONAL GMBH, priority 2013, dated 2017)
